Test results: the supplement of paper PMC4858399
Where a name gives a salt, the structure may show the parent alone.

Experiments:
[1] = test system: Caenorhabditis elegans N2; assay: lowest effective concentration for larval growth inhibition (size below effect threshold); higher = less potent; details: exposure time 48 h
How it was run: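 Each well of a 96-well plate received 50 C. elegans N2 L1 larvae, which grew for 48 h at 20°C in K-medium containing killed bacteria, 1% DMSO and the chemical at 0.5, 1, 5, 10, 50, 100 or 200 µM. A Biosort recorded the extinction of every worm as its size, and these readings were log-transformed and averaged per well. The lowest effective concentration is defined as the first dose at which the plate-adjusted mean size falls below the threshold and stays below it at all higher doses; that threshold is 5.665.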

[2] = test system: Caenorhabditis elegans N2; assay: mean nematode size ln(EXT) after 48 h, plate-adjusted (DMSO control set to 6) (ln(EXT), control-adjusted); higher = larger nematodes / less growth inhibition; details: exposure time 48 h
How it was run: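 Synchronised C. elegans N2 L1 larvae (50 per well, 4–6 wells per treatment) were grown for 48 h at 20°C in K-medium with killed OP50, 1% DMSO and 0.5–200 µM chemical. The Biosort measured each worm's extinction, and debris was removed by a growth model. Values were natural-logged and averaged per well. Mean size was then plate-adjusted by subtracting the vehicle control mean and adding 6.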

Structure (SMILES) | lowest effective concentration [1] | mean nematode size ln(EXT) (ln) ([2]; 0.5 µM) | mean nematode size ln(EXT) (ln) ([2]; 1 µM) | mean nematode size ln(EXT) (ln) ([2]; 5 µM) | mean nematode size ln(EXT) (ln) ([2]; 10 µM) | mean nematode size ln(EXT) (ln) ([2]; 50 µM) | mean nematode size ln(EXT) (ln) ([2]; 100 µM) | mean nematode size ln(EXT) (ln) ([2]; 200 µM)
CNC(=O)O/N=C/C(C)(C)SC [Aldicarb] | > 200 µM | 5.86 | 5.88 | 5.74 | 5.74 | 5.55 | 5.25 | 5.75
COCC(C)N(C(=O)CCl)c1c(C)csc1C (configuration not stated) [Dimethenamid] | > 200 µM | 6.08 | 5.91 | 6.17 | 6.03 | 5.87 | 6.56 | 5.99
COc1cc(S(=O)(=O)O)c(C)cc1N=Nc1c(O)ccc2cc(S(=O)(=O)O)ccc12 [Allura red] | > 200 µM | 5.71 | 5.75 | 5.76 | 5.79 | 5.72 | 5.67 | 5.86
CCCc1ccccc1 [Propylbenzene] | 50 µM | 5.75 | 5.64 | 5.71 | 5.69 | 5.38 | 5.53 | 5.61
Cc1ccc(S(=O)(=O)O)cc1C [Sodium xylenesulfonate] | > 200 µM | 5.89 | 5.95 | 5.92 | 5.82 | 5.89 | 5.8 | 5.72
CCC(C)(NC(=O)c1cc(Cl)c(C)c(Cl)c1)C(=O)CCl (configuration not stated) [Zoxamide] | > 200 µM | 5.75 | 5.81 | 5.67 | 5.64 | 5.48 | 4.67 | 5.7
CCOCCOCCOCCO [2-[2-(2-Ethoxyethoxy)ethoxy]ethanol] | > 200 µM | 5.96 | 5.89 | 5.95 | 5.94 | 5.91 | 5.9 | 5.83
CSc1nnc(C(C)(C)C)c(=O)n1N [Metribuzin] | > 200 µM | 5.83 | 5.88 | 5.91 | 5.85 | 5.84 | 5.87 | 5.78
Cc1cccc([N+](=O)[O-])c1C [1,2-Dimethyl-3-nitrobenzene] | > 200 µM | 5.81 | 5.89 | 5.83 | 5.77 | 5.86 | 5.83 | 5.79
CC1=NNC(=O)N(/N=C/c2cccnc2)C1 [Pymetrozine] | > 200 µM | 5.74 | 5.77 | 5.8 | 5.78 | 5.77 | 5.89 | 5.76
CC(C)(O)c1ccc(CNC(=O)c2cccnc2Oc2ccc3nonc3c2)cc1 | > 200 µM | 5.94 | 5.81 | 5.9 | 5.71 | 5.92 | 5.81 | 5.8
CC(C)(C)c1ccccc1 [tert-Butylbenzene] | > 200 µM | 5.94 | 6.02 | 6.07 | 6.05 | 6.22 | 6.12 | 5.79
CC(C)C1(C)N=C(c2ncccc2C(=O)O)NC1=O (configuration not stated) [Imazapyr] | > 200 µM | 5.84 | 5.98 | 6.01 | 5.97 | 5.9 | 5.84 | 5.77
Nc1nc(=O)c2nc(CNc3ccc(C(=O)N[C@@H](CCC(=O)O)C(=O)O)cc3)cnc2[nH]1 [Folic acid] | > 200 µM | 6.04 | 5.96 | 5.91 | 6.04 | 6.02 | 6 | 5.82
CCOCCOC(C)=O [2-Ethoxyethyl acetate] | > 200 µM | 6.11 | 6.11 | 6.07 | 6.08 | 6.07 | 6.04 | 6.57
CC(=O)C(C)=CC1C(C)=CCCC1(C)C (configuration not stated) | > 200 µM | 5.84 | 5.8 | 5.9 | 5.86 | 5.84 | 5.93 | 5.79
C[C@@]1(c2ccc(Oc3ccccc3)cc2)OC(=O)N(Nc2ccccc2)C1=O (racemic) [Famoxadone] | > 200 µM | 5.8 | 5.77 | 5.7 | 5.8 | 5.75 | 5.83 | 5.67
Cc1cc(O)ccc1Cl [4-Chloro-3-methylphenol] | > 200 µM | 5.83 | 5.8 | 5.79 | 5.82 | 5.85 | 5.78 | 5.68
CCCOC(=O)c1ccc(O)cc1 [Propylparaben] | > 200 µM | 5.95 | 5.95 | 5.9 | 5.92 | 5.84 | 5.87 | 5.79
CC(O)CO (configuration not stated) [Propylene glycol] | > 200 µM | 6.09 | 5.99 | 6.05 | 6.02 | 5.91 | 5.9 | 5.71
Cc1cc(Cl)ccc1OCC(=O)O [MCPA] | > 200 µM | 5.99 | 6.05 | 6.18 | 6.02 | 6.09 | 6.02 | 5.9
CCc1cc(C2=C(C(=O)O)N(c3ccccc3C(F)(F)F)S(=O)(=O)c3ccccc32)cc2c1OCO2 [Fandosentan potassium salt] | > 200 µM | 5.81 | 5.82 | 5.89 | 5.85 | 5.75 | 5.75 | 5.69
O=C(O)C1(C(=O)Nc2ccc(Cl)cc2Cl)CC1 [Cyclanilide] | > 200 µM | 6.16 | 6.05 | 6.18 | 6.27 | 6.34 | 6.38 | 5.9
CCCCCCCCOC(=O)c1ccccc1C(=O)OCCCCCCCC [Di-n-octyl phthalate] | > 200 µM | 5.93 | 5.87 | 5.9 | 5.85 | 5.88 | 5.83 | 5.83
COc1cnc(OC)n2nc(NS(=O)(=O)c3c(OCC(F)F)cccc3C(F)(F)F)nc12 [Penoxsulam] | > 200 µM | 6.17 | 6.06 | 5.98 | 6.03 | 6.01 | 6.02 | 5.72
O=C(OCCOCCOC(=O)c1ccccc1)c1ccccc1 [Di(ethylene glycol) dibenzoate] | 200 µM | 5.89 | 5.82 | 5.77 | 5.76 | 5.71 | 5.79 | 5.66
Cc1ccccc1O [2-Methylphenol] | > 200 µM | 5.98 | 5.9 | 5.94 | 5.82 | 5.92 | 5.94 | 5.81

Structure (SMILES) | lowest effective concentration [1] | mean nematode size ln(EXT) (ln) ([2]; 0.5 µM) | mean nematode size ln(EXT) (ln) ([2]; 1 µM) | mean nematode size ln(EXT) (ln) ([2]; 5 µM) | mean nematode size ln(EXT) (ln) ([2]; 10 µM) | mean nematode size ln(EXT) (ln) ([2]; 50 µM) | mean nematode size ln(EXT) (ln) ([2]; 100 µM) | mean nematode size ln(EXT) (ln) ([2]; 200 µM)
CC(C)C(=O)OCC(C)(C)C(OC(=O)C(C)C)C(C)C (configuration not stated) [2,2,4-Trimethyl-1,3-pentanediol diisobutyrate] | > 200 µM | 5.99 | 6.03 | 5.99 | 5.9 | 5.99 | 5.94 | 5.68
ClC(Cl)c1ccccc1 [Benzal chloride] | > 200 µM | 5.81 | 5.83 | 5.86 | 5.78 | 5.85 | 5.89 | 5.68
CCOC(=O)c1ccc(O)cc1 [Ethylparaben] | > 200 µM | 5.98 | 5.82 | 5.93 | 5.81 | 5.84 | 5.84 | 5.74
CNC(=O)Oc1cccc2ccccc12 [Carbaryl] | > 200 µM | 5.78 | 5.79 | 5.6 | 5.71 | 5.83 | 5.72 | 5.67
CCOc1nc(F)cc2nc(S(=O)(=O)Nc3c(Cl)cccc3Cl)nn12 [Diclosulam] | > 200 µM | 6.11 | 6.13 | 6.09 | 6.14 | 6.15 | 6.17 | 5.79
CCCCOCCO [2-Butoxyethanol] | > 200 µM | 5.93 | 5.98 | 5.92 | 6 | 6.01 | 5.84 | 5.81
Cn1c(=O)c2c(ncn2C)n(C)c1=O [Caffeine] | > 200 µM | 5.87 | 5.94 | 5.87 | 5.91 | 5.94 | 5.85 | 5.75
O=C(N[C@H]1CN2CCC1CC2)c1ccc2c(c1)OCCO2 | > 200 µM | 5.82 | 5.83 | 5.8 | 5.8 | 5.81 | 5.81 | 5.67
O=C(O)c1ccc2c(c1)nc(C(=O)NC1CCN(C3CC3)CC1)n2Cc1cc(-c2ccc(Cl)s2)on1 | > 200 µM | 5.76 | 5.81 | 5.71 | 5.87 | 5.82 | 5.69 | 5.86
CCCCC(CC)COC(=O)c1ccccc1C(=O)O (configuration not stated) [Phthalic acid, mono-2-ethylhexyl ester] | > 200 µM | 5.83 | 5.76 | 5.77 | 6.08 | 6.11 | 6.44 | 5.88
COc1ccc([N+](=O)[O-])cc1N [2-methoxy-5-nitroaniline] | > 200 µM | 5.71 | 5.76 | 5.68 | 5.77 | 5.83 | 5.75 | 5.82
CCNc1cccc(C)c1 [N-Ethyl-3-methylaniline] | 200 µM | 5.68 | 5.72 | 5.59 | 5.59 | 5.63 | 5.72 | 5.63
C=CCc1ccc(O)c(OC)c1 [Eugenol] | > 200 µM | 5.89 | 5.9 | 5.93 | 5.98 | 5.91 | 5.87 | 5.77
CCCCCCCCCCCCCCCCCC(=O)O [Stearic acid] | > 200 µM | 6.02 | 5.96 | 6.03 | 5.96 | 5.87 | 5.85 | 5.91
OCCOc1ccccc1 [Phenoxyethanol] | > 200 µM | 5.77 | 5.98 | 6.04 | 6.07 | 6.15 | 5.99 | 5.97
Clc1cccc(Cl)c1 [1,3-Dichlorobenzene] | > 200 µM | 5.9 | 5.89 | 5.87 | 5.96 | 5.99 | 5.99 | 5.79
Cc1ccccc1[N+](=O)[O-] [2-Nitrotoluene] | > 200 µM | 5.85 | 5.89 | 6.04 | 5.77 | 5.91 | 5.76 | 5.7
CCCCCOC(C)=O [Pentyl acetate] | > 200 µM | 5.91 | 5.91 | 5.94 | 6 | 5.89 | 5.89 | 5.7
O=C1CCCCCN1 [Caprolactam] | > 200 µM | 5.8 | 5.81 | 5.84 | 5.87 | 5.88 | 5.55 | 5.68
COCc1cnc(C2=NC(C)(C(C)C)C(=O)N2)c(C(=O)O)c1 (configuration not stated) [Imazamox] | > 200 µM | 5.93 | 5.93 | 5.91 | 5.96 | 6 | 6.01 | 5.83
Nc1ccc([N+](=O)[O-])cc1 [4-Nitroaniline] | > 200 µM | 5.76 | 5.77 | 5.73 | 5.64 | 5.68 | 5.69 | 5.72
Cc1ccc(C(C)C)cc1 [p-Cymene] | > 200 µM | 5.73 | 5.99 | 6.14 | 6.05 | 6.08 | 6.06 | 5.92
COc1cc2c(c(OC)c1OC)-c1ccc(OC)c(=O)cc1[C@@H](NC(C)=O)CC2 [Colchicine] | > 200 µM | 5.82 | 5.93 | 5.87 | 5.95 | 5.92 | 5.89 | 5.7
Nc1cccc2c(N)cccc12 [1,5-Diaminonaphthalene] | > 200 µM | 5.81 | 5.79 | 5.81 | 5.77 | 5.64 | 5.53 | 5.73
CCCCC(CC)CO (configuration not stated) [2-Ethyl-1-hexanol] | > 200 µM | 5.86 | 5.82 | 5.79 | 5.75 | 5.7 | 5.85 | 5.92
CC(C)=CCC/C(C)=C/CO [Geraniol] | > 200 µM | 5.92 | 5.94 | 5.89 | 6.03 | 5.99 | 6.04 | 5.72
Cc1ccc(C)c(C)c1 [1,2,4-Trimethylbenzene] | > 200 µM | 5.8 | 5.84 | 5.88 | 5.84 | 5.91 | 5.89 | 5.71
